# Experimental data published in patent US7449114B2, “Halogenated solvent remediation” (SRP Technologies, Inc., priority 2000, dated 2008).
# Assays:
# [1] = Surface tension of electron donor solutions, pendant drop method; format: physicochemical; conditions: for change in surface tension: 0% ethyl lactate
# Method: (§1) Based on the field results presented in Example 1, laboratory studies were performed to confirm that the enhanced bioavailability of TCE observed in the field was due to co-solvent or surfactant behavior resulting from the use of high concentrations of sodium lactate. Two fundamental properties used to screen the co-solvent or surfactant properties of a solution are surface tension and interfacial tension. Surface tension measures the force per unit length along the interface between a liquid and air due to its tension. When a co-solvent or surfactant is present in an aqueous liquid at increasing concentrations, the surface tension of that liquid decreases. Interfacial tension is similar to surface tension except that it measures the force per unit length along the interface between two liquid phases arising from the surface free energy. The higher the interfacial tension between two liquids, the less likely one is to dissolve into the other, and the more difficult it is for one to be transported within the other. […]
# The laboratory study performed to confirm the co-solvent properties of the high concentration electron donor solution measured the surface tension of electron donor solutions at various concentrations. Next, interfacial tensions between the same electron donor solutions and nonaqueous phase TCE were measured. […] Surface and interfacial tension measurements were made using the pendant drop method (M. J. Rosen, ed., Structure/Performance Relationships in Surfactants, American Chemical Society, Washington D.C. 329 (1984); R. D. Bagnall & P. A. Arundel, The Profile Area of Pendant Drops, 82 J. Phys. Chem. 898 (1978)) coupled with real-time video imaging (M. D. Herd et al., Interfacial Tensions of Microbial Surfactants Determined by Real-Time Video Imaging of Pendant Drops, Proceedings paper number SPE/DOE 24206 513-519, SPE/DOE Eighth Symposium on Enhanced Oil Recovery, Tulsa, Okla. (1992)). […]
# [2] = Interfacial tension between electron donor solutions and nonaqueous phase TCE, pendant drop method; format: physicochemical; conditions: 0% ethyl lactate
# Method: as §1
# The laboratory study performed to confirm the co-solvent properties of the high concentration electron donor solution measured the surface tension of electron donor solutions at various concentrations. Next, interfacial tensions between the same electron donor solutions and nonaqueous phase TCE were measured. […]
# [3] = test system: chloroethenes (primarily TCE) in ground water; experiment: Field evaluation of enhanced in situ bioremediation, Test Area North (Example 1); conditions: all wells receiving significant lactate concentrations
# Method: A 1-year field evaluation of enhanced in situ bioremediation was performed at Test Area North (“TAN”) of the Idaho National Engineering and Environmental Laboratory. […] The locations of a 5,000 μg/L TCE isopleth (14); 1,000 μg/L TCE isopleth (16); 100 μg/L TCE isopleth (18); and 5 μg/L TCE isopleth (20) are shown by solid lines. FIG. 2 illustrates a cross section of this site, showing the surface of the ground (22), an approximately 63-m (210-feet) fractured basalt unsaturation zone (24) (not drawn to scale), an approximately 60-m (200-feet) fractured basalt aquifer (26), and an impermeable clay interbed (28). […]
# The initial electron donor addition strategy involved continuous injection of potable water at 37.85 liters/minute (10 gpm) into Well TSF-05. […] It was determined that the continuous injection of clean water at 37.85 liters/minute (10 gpm) overwhelmed the flux of contaminants from the secondary source. […] This was intended to prevent significant quantities of electron donor from collecting in the injection well and to help prevent biofouling. […]
# Eleven monitoring wells (i.e., TAN-D2, TAN-9, TAN-10A, TAN-25, TAN-26, TAN-27, TAN-28, TAN-29, TAN-30A, TAN-31, and TAN-37) were sampled biweekly and analyzed for electron donors, biological activity indicators, competing inorganic electron acceptors and their reduced products, chloroethenes, ethene, pH, temperature, and specific conductivity.
# [4] = test system: PCE/TCE plume in ground water; experiment: Sodium lactate injection pilot test, Tennessee Air National Guard Site, Memphis (Example 3); conditions: after 8 months and 4 lactate injections
# Description: Site Background. A site-wide Remedial Investigation (RI) identified a chlorinated solvent plume in a sandy aquifer approximately 35 to 60 feet (10.7 to 18.3 m) below ground surface at the 164th Airlift Wing at the Tennessee Air National Guard Site, Memphis, Tenn. The plume area targeted for treatment was over 2 acres (0.81 hectares). This unconfined saturated interval is overlain by an inorganic loess vadose zone and is separated from the deeper regional aquifer by a clay unit. PCE concentrations ranged from 5 to 1,000 μg/L in the target area, while TCE ranged from 100 to greater than 15,000 μg/L in the injection/monitoring wells. […] A pilot test of a sodium lactate injection system to enhance natural reductive dechlorination in the groundwater was approved by the Tennessee Department of Environment and Conservation, the Memphis and Shelby County Health Department, and the Shelby County Ground Water Control Board.
# System Design. A three-dimensional model to simulate groundwater flow was developed using the MODFLOW simulator (U.S. Geological Survey). Once calibrated, model simulations were used to determine the optimal injection well locations, as well as the rate and duration of injection. Based on the results of other sodium lactate injection sites, a period of 60 days between injections was assumed. The optimal configuration was determined to be a 9-well injection system at an injection rate of 10 gallons per minute (gpm; 37.8 liters/minute) for 5 days.
# Potable water was mixed with 60% sodium lactate to create a 1% solution. An existing 8-inch (20.3-cm) water line was tapped and connected to the distribution control header via a 4-inch (10.2-cm) line, which was housed in a portable 12-ft×14-ft (3.6-m×4.3-m) building. A double-check valve assembly was installed on the 4-inch (10.2-cm)water line to prevent back-siphoning of the injection solution into the 8-inch (20.3-cm) potable water line. Following a mixing zone with the potable water, the resulting 1% solution was delivered to the nine injection wells. […]
# [5] = test system: chlorinated ethenes (PCE, TCE) in groundwater; experiment: Biostimulation pilot test, IR Site 40, Seal Beach (Example 4)
# Method: A biostimulation pilot-test program for in situ anaerobic bioremediation of chlorinated ethenes in groundwater was conducted at Installation Restoration (IR) Program Site 40, Naval Weapons Station Seal Beach, Calif. IR Site 40 includes a concrete pit in a locomotive shop building and a gravel area north of and adjacent to the building. Oil and solvents spilled during locomotive maintenance collected in the pit and discharged to the gravel area via a drainpipe (FIG. 11). Groundwater was contaminated with chlorinated solvents, primarily PCE and trichloroethene (TCE). The plume extends over 100 meters (m) downgradient of the source area and is generally limited in extent to approximately 20 m below ground surface. The groundwater gradient is relatively flat and is influenced by tidal fluctuations. The net gradient direction is southeasterly. The Seal Beach National Wildlife Refuge lies downgradient of the site.
# The tests were conducted in the area interpreted to have the highest PCE concentrations in groundwater. The tests were conducted over an 8-month period from August 2001 through mid-March 2002. Approximately 210,000 liters (55,500 gallons) of 3 percent sodium lactate solution was injected. A direct injection system was selected over recirculation to avoid reinjection of untreated water into the test cell. A 60 percent sodium lactate solution (JRW Technologies, Lenexa, Kans.) was diluted to 3 percent with potable water using a proportional injector (Dosatron International, Bordeaux, France). Lactate was injected at an average rate of approximately 3,550 gallons per week for the first 2 months. The average injection rate was then adjusted to approximately 750 gallons per week to maintain optimum electron-donor concentrations. No clogging or fouling effects were observed over the course of the pilot test. Water level measurements were performed during injection to assess the induced gradient.
# Effects were monitored in seven wells in the pilot-test area. Two wells are located crossgradient and five downgradient of the injection well at distances ranging from approximately 2 to 30 m. Pretest groundwater samples were collected to establish baseline conditions. Weekly groundwater samples were collected during and analyzed on-site using field test kits for sulfate, ferrous iron, alkalinity, chemical oxygen demand (COD) (Hach, Loveland, Colo.), nitrate, and carbon dioxide (CHEMetrics, Calverton, Va.) and direct reading instrumentation for pH, temperature, conductivity, oxidation-reduction potential, and dissolved oxygen (YSI, Yellow Springs, Ohio). Monthly groundwater samples were analyzed off-site for volatile organic compounds, alkalinity, COD, anions, cations, total dissolved solids (Columbia Analytical Services, Kelso, Wash.), and dissolved gases (Performance Analytical, Simi Valley, Calif.). Samples were periodically analyzed for organic acids (Idaho National Engineering and Environmental Laboratory [INEEL], Idaho Falls, Id.), phospholipid fatty acids (Microbial Insights, Rockford, Tenn.), and DNA typing using quantitative polymerase chain reaction (PCR) and terminal restriction fragment length polymorphisms (T-RFLP) analyses (University of California, Berkeley, Calif.), according to methods well known in the art.
SMILES,effect on the solution's surface tension ([1]; 1% and 10% ethyl lactate added to sodium lactate solutions),change in surface tension ([1]; sodium lactate 0.01 to 7%),change in surface tension ([1]; sodium lactate increased to 30 and 60%),interfacial tension as % of the value at 0.1% sodium lactate ([2]; sodium lactate 30%) [%],decrease of interfacial tension ([2]; sodium lactate increased from 0.1 to 3%),reductive dechlorination of TCE to ethene [3],TCE concentrations ([4]; 10 of 15 wells),"TCE concentration ([4]; well 03-010MW, pre-lactate around 5,690)","TCE concentration ([4]; well 03-020MW, pre-lactate around 4,600) [µg/L]","increase of PCE concentrations ([5]; at least one well, following injection)",reductive dechlorination of PCE and TCE ([5]; by the third month),biomass (phospholipid fatty acid analysis) ([5]; close to the injection well),radius of influence within which PCE was converted to DCE ([5]; crossgradient),radius of influence within which PCE was converted to DCE ([5]; downgradient) [m]
CCOC(=O)C(C)O (centres unmarked) [ethyl lactate],pronounced effect,–,–,–,–,–,–,–,–,–,–,–,–,–
CC(O)C(=O)[O-].[Na+] (centres unmarked) [sodium lactate],–,almost no change,dramatic decrease,47,about 26%,Enhanced reductive dechlorination of TCE to ethene was observed,below detectable levels and/or the maximum contaminant level (MCL),approximately 50 μg/L,~130,greater than fifteen-fold,"dramatically transformed to cis-1,2-DCE",increased up to an order of magnitude,approximately 6 m,~8
